This is an account of results in patent publication US20140323300A1, “HERBICIDAL COMPOUNDS” (SYNGENTA LIMITED, priority 2011, published 2014).

Data set [1] concerns Alopecurus myosuroides (ALOMY). The data set is described as follows: Post-emergence glasshouse herbicide test. Type of data set: in vivo. The conditions noted are these: post-emergence (sprayed after 8 days cultivation), 1000 g/h, evaluated after 13 days, five point scale. Put shortly: (§1)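 Damage was rated 13 days after treatment on a five-point scale (1 = 0–19%, 5 = 80–100%). The compound, formulated in 50:50 acetone/water with 0.5% Tween 20, was sprayed at 1000 g/h on pots one day (pre) or 8 days (post) after sowing, kept in a glasshouse at 24/16° C, 14 h light, 65% humidity.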

Data set [2] has as its system Amaranthus retoflexus (AMARE). The data set is described as follows: Post-emergence glasshouse herbicide test. Format: in vivo. The conditions noted are these: post-emergence (sprayed after 8 days cultivation), 1000 g/h, evaluated after 13 days, five point scale. Put shortly: as §1
Data set [3] concerns Echinochloa crus-galli (ECHCG). The data set is described as follows: Post-emergence glasshouse herbicide test. Format: in vivo. The conditions noted are these: post-emergence (sprayed after 8 days cultivation), 1000 g/h, evaluated after 13 days, five point scale. Summed up:
as §1

For data set [4], the system named is Ipomoea hederacea (IPOHE). The data set is described as follows: Post-emergence glasshouse herbicide test. Format: in vivo. The conditions noted are these: post-emergence (sprayed after 8 days cultivation), 1000 g/h, evaluated after 13 days, five point scale. Put shortly:
as §1

The subject of data set [5] is Setaria faberi (SETFA). The data set can be described thus: Post-emergence glasshouse herbicide test. The conditions noted are these: post-emergence (sprayed after 8 days cultivation), 1000 g/h, evaluated after 13 days, five point scale. Format: in vivo. Put shortly:
as §1

For data set [6], the system named is Solanum nigrum (SOLNI). The data set can be described thus: Post-emergence glasshouse herbicide test. Type of data set: in vivo. The conditions noted are these: post-emergence (sprayed after 8 days cultivation), 1000 g/h, evaluated after 13 days, five point scale. Put shortly: as §1
The test system of data set [7] is Alopecurus myosuroides (ALOMY). The data set is described as follows: Pre-emergence glasshouse herbicide test. Type of data set: in vivo. The conditions noted are these: pre-emergence (sprayed after one day cultivation), 1000 g/h, evaluated after 13 days, five point scale. Summed up: as §1
The subject of data set [8] is Amaranthus retoflexus (AMARE). The data set can be described thus: Pre-emergence glasshouse herbicide test. Format: in vivo. The conditions noted are these: pre-emergence (sprayed after one day cultivation), 1000 g/h, evaluated after 13 days, five point scale. Put shortly: as §1
In data set [9] the test system is Echinochloa crus-galli (ECHCG). The data set is described as follows: Pre-emergence glasshouse herbicide test. Type of data set: in vivo. The conditions noted are these: pre-emergence (sprayed after one day cultivation), 1000 g/h, evaluated after 13 days, five point scale. Put shortly:
as §1

Data set [10] deals with Ipomoea hederacea (IPOHE). The data set is described as follows: Pre-emergence glasshouse herbicide test. The conditions noted are these: pre-emergence (sprayed after one day cultivation), 1000 g/h, evaluated after 13 days, five point scale. Format: in vivo. Summed up: as §1
Data set [11] concerns Setaria faberi (SETFA). The data set is described as follows: Pre-emergence glasshouse herbicide test. The conditions noted are these: pre-emergence (sprayed after one day cultivation), 1000 g/h, evaluated after 13 days, five point scale. Format: in vivo. Put shortly:
as §1

Data set [12] relates to Solanum nigrum (SOLNI). The data set can be described thus: Pre-emergence glasshouse herbicide test. Type of data set: in vivo. The conditions noted are these: pre-emergence (sprayed after one day cultivation), 1000 g/h, evaluated after 13 days, five point scale. Summed up:
as §1

By melting point is commonly meant the temperature, or range, at which the solid turns liquid. Consider `C=C(C)C1C=NN(c2ccc(C(F)(F)F)cc2S(C)(=O)=O)C(=O)C1=O` (stereo not shown) [Compound 1.039, 4-Isopropenyl-1-[2-methylsulfonyl-4-(trifluoromethyl)phenyl]-4H-pyridazine-5,6-dione], for which the melting point lay in the range of 144 to 147 °C. The “percentage damage caused to the plant, POST Application ALOMY” value in data set [1] is recorded as 5 (5=80-100%). In addition, the “percentage damage caused to the plant, POST Application AMARE” value in [2] is given as 5 (5=80-100%). The “percentage damage caused to the plant, POST Application ECHCG” value in data set [3] is on record as 5 (5=80-100%). Moreover, the “percentage damage caused to the plant, POST Application IPOHE” value in data set [4] is given as 5 (5=80-100%). Besides, the “percentage damage caused to the plant, POST Application SETFA” value in the data set with Setaria faberi (SETFA) [5] is listed as 5 (5=80-100%). Moreover, the “percentage damage caused to the plant, POST Application SOLNI” value with Solanum nigrum (SOLNI) [6] is listed as 5 (5=80-100%). In data set [7], the “percentage damage caused to the plant, PRE Application ALOMY” value is on record as 5 (5=80-100%). In [8], the “percentage damage caused to the plant, PRE Application AMARE” value was 5 (5=80-100%). In data set [9], the “percentage damage caused to the plant, PRE Application ECHCG” value is listed as 5 (5=80-100%). Besides, the “percentage damage caused to the plant, PRE Application IPOHE” value in [10] is given as 5 (5=80-100%). For the same molecule, in the data set with Setaria faberi (SETFA) [11], the “percentage damage caused to the plant, PRE Application SETFA” value is reported as 5 (5=80-100%). Moreover, the “percentage damage caused to the plant, PRE Application SOLNI” value in the data set on Solanum nigrum (SOLNI) [12] is 5 (5=80-100%).
With `CCc1cnn(-c2ccc(C(F)(F)F)cc2S(C)(=O)=O)c(=O)c1O` [Compound 1.045], in data set [1], the “percentage damage caused to the plant, POST Application ALOMY” value was 5 (5=80-100%). The “percentage damage caused to the plant, POST Application AMARE” value in data set [2] was 5 (5=80-100%). Besides, the “percentage damage caused to the plant, POST Application ECHCG” value in [3] was 5 (5=80-100%). Besides, in data set [4], the “percentage damage caused to the plant, POST Application IPOHE” value is recorded as 5 (5=80-100%). The “percentage damage caused to the plant, POST Application SETFA” value in the data set with Setaria faberi (SETFA) [5] was 5 (5=80-100%). Further, the “percentage damage caused to the plant, POST Application SOLNI” value in the data set on Solanum nigrum (SOLNI) [6] was 5 (5=80-100%). Moreover, the “percentage damage caused to the plant, PRE Application ALOMY” value in [7] is 5 (5=80-100%). Moreover, the “percentage damage caused to the plant, PRE Application AMARE” value in data set [8] was 5 (5=80-100%). In addition, the “percentage damage caused to the plant, PRE Application ECHCG” value in data set [9] is reported as 5 (5=80-100%). The “percentage damage caused to the plant, PRE Application IPOHE” value in [10] is on record as 5 (5=80-100%). The “percentage damage caused to the plant, PRE Application SETFA” value in the data set on Setaria faberi (SETFA) [11] is listed as 5 (5=80-100%). In the data set with Solanum nigrum (SOLNI) [12], the “percentage damage caused to the plant, PRE Application SOLNI” value was 5 (5=80-100%).
Turning to `CS(=O)(=O)c1cc(Cl)ccc1-n1ncc(S(C)(=O)=O)c(O)c1=O` [Compound 1.047], the “percentage damage caused to the plant, POST Application ALOMY” value in [1] is on record as 1 (1=0-19%). Also, the “percentage damage caused to the plant, POST Application AMARE” value in data set [2] is reported as 2 (2=20-39%). Besides, the “percentage damage caused to the plant, POST Application ECHCG” value in data set [3] is reported as 1 (1=0-19%). The “percentage damage caused to the plant, POST Application IPOHE” value in data set [4] is recorded as 2 (2=20-39%). In the data set with Setaria faberi (SETFA) [5], the “percentage damage caused to the plant, POST Application SETFA” value is given as 1 (1=0-19%). In the data set with Solanum nigrum (SOLNI) [6], the “percentage damage caused to the plant, POST Application SOLNI” value is on record as 2 (2=20-39%). Moreover, the “percentage damage caused to the plant, PRE Application ALOMY” value in data set [7] is 1 (1=0-19%). In [8], the “percentage damage caused to the plant, PRE Application AMARE” value was 2 (2=20-39%). For the same molecule, the “percentage damage caused to the plant, PRE Application ECHCG” value in data set [9] was 1 (1=0-19%). The “percentage damage caused to the plant, PRE Application IPOHE” value in data set [10] was 2 (2=20-39%). In the data set on Setaria faberi (SETFA) [11], the “percentage damage caused to the plant, PRE Application SETFA” value is listed as 1 (1=0-19%). In addition, the “percentage damage caused to the plant, PRE Application SOLNI” value in the data set on Solanum nigrum (SOLNI) [12] was 2 (2=20-39%).
With `CSc1cnn(-c2ccc(Cl)cc2S(C)(=O)=O)c(=O)c1O` [Compound 1.048], the “percentage damage caused to the plant, POST Application ALOMY” value in data set [1] is recorded as 1 (1=0-19%). In addition, the “percentage damage caused to the plant, POST Application AMARE” value in [2] was 4 (4=60-79%). Besides, the “percentage damage caused to the plant, POST Application ECHCG” value in data set [3] is recorded as 3 (3=40-59%). The “percentage damage caused to the plant, POST Application IPOHE” value in data set [4] was 3 (3=40-59%). In addition, the “percentage damage caused to the plant, POST Application SETFA” value with Setaria faberi (SETFA) [5] was 2 (2=20-39%). Besides, the “percentage damage caused to the plant, POST Application SOLNI” value in the data set with Solanum nigrum (SOLNI) [6] is 4 (4=60-79%). The “percentage damage caused to the plant, PRE Application ALOMY” value in data set [7] is on record as 1 (1=0-19%). The “percentage damage caused to the plant, PRE Application AMARE” value in [8] was 4 (4=60-79%). Besides, the “percentage damage caused to the plant, PRE Application ECHCG” value in [9] was 3 (3=40-59%). Besides, in [10], the “percentage damage caused to the plant, PRE Application IPOHE” value is on record as 3 (3=40-59%). Also, the “percentage damage caused to the plant, PRE Application SETFA” value with Setaria faberi (SETFA) [11] is on record as 2 (2=20-39%). Moreover, the “percentage damage caused to the plant, PRE Application SOLNI” value with Solanum nigrum (SOLNI) [12] was 4 (4=60-79%).
Take `C=Cc1cnn(-c2ccc(C(F)(F)F)cc2S(C)(=O)=O)c(=O)c1O` [Compound 1.053]: in data set [1], the “percentage damage caused to the plant, POST Application ALOMY” value was 4 (4=60-79%). Moreover, the “percentage damage caused to the plant, POST Application AMARE” value in [2] is listed as 5 (5=80-100%). In data set [3], the “percentage damage caused to the plant, POST Application ECHCG” value is 5 (5=80-100%). Also, in [4], the “percentage damage caused to the plant, POST Application IPOHE” value is on record as 5 (5=80-100%). Also, the “percentage damage caused to the plant, POST Application SETFA” value in the data set with Setaria faberi (SETFA) [5] is 5 (5=80-100%). Further, the “percentage damage caused to the plant, POST Application SOLNI” value with Solanum nigrum (SOLNI) [6] was 5 (5=80-100%). For the same molecule, the “percentage damage caused to the plant, PRE Application ALOMY” value in data set [7] is on record as 4 (4=60-79%). For the same molecule, in [8], the “percentage damage caused to the plant, PRE Application AMARE” value was 5 (5=80-100%). In data set [9], the “percentage damage caused to the plant, PRE Application ECHCG” value was 5 (5=80-100%). Besides, the “percentage damage caused to the plant, PRE Application IPOHE” value in data set [10] was 5 (5=80-100%). Besides, the “percentage damage caused to the plant, PRE Application SETFA” value with Setaria faberi (SETFA) [11] is on record as 5 (5=80-100%). Further, in the data set with Solanum nigrum (SOLNI) [12], the “percentage damage caused to the plant, PRE Application SOLNI” value is recorded as 5 (5=80-100%).
